# Results: patent publication US7202247B2, “1,3-bis-(substituted-phenyl)-2-propyn-1-ones and their use to treat disorders” (AtheroGenics, Inc., priority 2001, dated 2007)
# Experiments:
# VCAM-1 = assay: In vitro VCAM-1 assay: TNF-α stimulated endothelial cells, cell-surface ELISA; format: cell-based; conditions: primary human aortic (HAEC) or pulmonary (HPAEC) endothelial cells, TNF-α 1 ng/ml, approximately 16 hours exposure
# Experimental: Cell Culture and compound dosing: Cultured primary human aortic (HAEC) or pulmonary (HPAEC) endothelial cells were obtained from Clonetics, Inc., and were used below passage 9. Cells were seeded in 96 well plates such that they would reach 90–95% confluency by the following day. On the following day the cells were stimulated with TNF-α (1 ng/ml) in the presence or absence of compounds dissolved in DMSO such that the final concentration of DMSO is 0.25% or less. To establish a dose curve for each compound, four concentrations in 2- to 5-fold increments were used. Cells were exposed to TNF-α and compounds for approximately 16 hours. The next day the cells were examined under microscope to score for visual signs of toxicity or cell stress.
# Following 16 hr exposure to TNF-α and compound the media was discarded and the cells were washed once with Hanks Balanced Salt Solution (HBSS)/Phosphate buffered saline (PBS) (1:1). Primary antibodies against VCAM-1 (0.25 μg/ml in HBSS/PBS+5% FBS) were added and incubated for 30–60 minutes at 37° C. Cells were washed with HBSS/PBS three times, and secondary antibody Horse Radish Peroxidase (HRP)-conjugated goat anti-mouse IgG (1:500 in HBSS/PBS+5% FBS) were added and incubated for 30 minutes at 37° C. Cells were washed with HBSS/PBS four time and TMB substrate were added and incubated at room temperature in the dark until there was adequate development of blue color. The length of time of incubation was typically 5–15 minutes. 2N sulfuric acid was added to stop the color development and the data was collected by reading the absorbance on a BioRad ELISA plate reader at OD 450 nm. The results are expressed as IC50 values (the concentration (micromolar) of compound required to inhibit 50% of the maximal response of the control sample stimulated by TNF-α only).
melting point,IC50 (VCAM-1) [µM],SMILES
198 to 200 °C,–,"COC(=O)c1ccc(C(=O)C#Cc2cc(-c3cccs3)c(OC)cc2OC)cc1 [Example 1, 4-[3-(2,4-dimethoxy-5-thiophen-2-yl-phenyl)-propynoyl]-benzoic acid methyl ester]"
220 °C (dec.),< 5,"COc1cc(OC)c(-c2cccs2)cc1C#CC(=O)c1ccc(C(=O)O)cc1 [Example 2, 4-[3-{2,4-Dimethoxy-5-(thiophen-2-yl)-phenyl}propynoyl]-benzoic Acid]"
–,< 5,"COC(=O)COc1c(OC)cc(C(=O)C#Cc2cc(-c3cccs3)c(OC)cc2OC)cc1OC [Example 3, {4-[3-(2,4-Dimethoxy-5-thiophen-2-yl-phenyl)-propynoyl]-2,6-dimethoxy-phenoxy}-acetic acid methyl ester]"
–,< 5,"COc1cc(OC)c(-c2cccs2)cc1C#CC(=O)c1cc(OC)c(OCC(=O)O)c(OC)c1 [Example 4, {4-[3-(2,4-Dimethoxy-5-thiophen-2-yl-phenyl)-propynoyl]-2,6-dimethoxy-phenoxy}-acetic acid]"
